Measurements taken from patent US10940188B2, “Compounds and methods for treatment and prevention of Flavivirus infection” (priority 2016, dated 2021).

test system: ZIKV-induced caspase 3/7 activity in SNB-19 cells; assay: Caspase 3/7 activity assay, ZIKV-infected SNB-19 cells; type: cell-based; settings: Homo sapiens; ZIKV-infected SNB-19 cells; read-out: Caspase 3 (IC50, uM) SNB-19
Protocol: (§1) Caspase-Glo 3/7 assay kit (catalog number G8092; Promega, Madison, Wis.) was used to detect caspase 3/7 activity. Reagents were reconstituted as described in the protocol from the manufacturer. Polystyrene plates (384-well and 1536-well; regular tissue culture treated and PDL coated) were purchased from Greiner Bio-One (Monroe, N.C.). Cells were seeded in 384- and 1536-well assay plates and cultured at 37° C. with 5% CO2 for 16 hours. ZIKV solution was added to cells, followed by incubation at 37° C. with 5% CO2 for 6 hours. Caspase-Glo 3/7 was added to each well, unless otherwise specified, and incubated at room temperature for 30 minutes. The luminescence intensity of the assay plates was measured using a ViewLux plate reader (PerkinElmer). Data were normalized by using the cell-containing wells without ZIKV as a negative control (0% induction of caspase 3/7 activity) and wells containing ZIKV infected cells that induced caspase 3/7 activity were used as a positive control (100% induction of caspase 3/7 activity). […]
(§2) Caspase-Glo 3/7 assay kit (Promega) was used to detect caspase 3/7 activity. Reagents were reconstituted as described in the protocol from the manufacturer. Cells were seeded in 384- and 1536-well assay plates and cultured at 37° C. with 5% CO2 for 16 hours. ZIKV solution was added to cells, followed by incubation at 37° C. with 5% CO2 for 6 hours. Caspase-Glo 3/7 was added to each well at a 1:1 ratio, unless otherwise specified, and incubated at room temperature for 30 minutes. The luminescence intensity of the assay plates was measured using a ViewLux plate reader (PerkinElmer). Data was normalized by using the cell-containing wells without ZIKV as a negative (0% induction of caspase 3/7 activity) control and wells containing ZIKV infected cells that induced caspase 3/7 activity were used as a positive control (100% induction of caspase 3/7 activity). […]

IC50	Structure (SMILES)
8.2 µM	Clc1ccccc1-c1nc(-c2ccncc2)no1 [Pifexole]
1.95 µM	O=C(Nc1ncc([N+](=O)[O-])s1)c1cccs1 [Tenonitrozole]

same assay, conditions: Homo sapiens; ZIKV-infected SNB-19 cells; read-out: Caspase 3 (efficacy, %) SNB-19

Structure (SMILES)	Emax
CCC(CC)CC1(C(=O)Nc2ccccc2SC(=O)C(C)C)CCCCC1 [Dalcetrapib]	50.2%
Clc1ccccc1-c1nc(-c2ccncc2)no1 [Pifexole]	83.6%
O=C(Nc1ncc([N+](=O)[O-])s1)c1cccs1 [Tenonitrozole]	81.7%

test system: ZIKV-induced cell death in SNB-19 cells; assay: ATP cell viability assay for ZIKV-induced cell death, SNB-19 cells; type: cell-based, human; settings: Homo sapiens; ZIKV-infected SNB-19 cells; read-out: Cell viability (IC50, uM) SNB-19
Protocol: (§3) The reagent was reconstituted and prepared as described by the manufacturer. In order to measure the cell death caused by ZIKV infection, cells were cultured for 16 hours at 37° C. with 5% CO2 in assay plates, followed by the addition of ZIKV solution and incubation at 37° C. with 5% CO2 for 72 hours. ATPlite, the ATP monitoring reagent, was then added to the assay plates and they were incubated for 15 minutes. The resulting luminescence was measured using the ViewLux plate reader (Perkin Elmer). Data were normalized using the wells without cells as a control for 100% cell killing, and cell-containing wells without ZIKV infection were used as full cell viability (0% cell killing). […]
as §3, with “The ATPlite luminescence assay system assay kit (PerkinElmer) was used to determine cell viability. The reagent” for “The reagent”, “by the manufacture. In order” for “by the manufacturer. In order”, “followed by addition of” for “followed by the addition of”, “plates and incubated for” for “plates and they were incubated for”, “Elmer). Data was normalized using” for “Elmer). Data were normalized using”

Structure (SMILES)	IC50
CCC(CC)CC1(C(=O)Nc2ccccc2SC(=O)C(C)C)CCCCC1 [Dalcetrapib]	35.5 µM

same assay, conditions: ZIKV-infected SNB-19 cells

Structure (SMILES)	Cell viability (efficacy, %) SNB-19
CCC(CC)CC1(C(=O)Nc2ccccc2SC(=O)C(C)C)CCCCC1 [Dalcetrapib]	110%
Clc1ccccc1-c1nc(-c2ccncc2)no1 [Pifexole]	0.0%
O=C(Nc1ncc([N+](=O)[O-])s1)c1cccs1 [Tenonitrozole]	0.0%

test system: ZIKV-induced cell death in human astrocytes; assay: ATP cell viability assay for ZIKV-induced cell death, human astrocytes; type: cell-based; settings: Astrocyte; ZIKV-infected human astrocytes; read-out: Cell viability (IC50, uM) Astrocyte

Structure (SMILES)	IC50
CCC(CC)CC1(C(=O)Nc2ccccc2SC(=O)C(C)C)CCCCC1 [Dalcetrapib]	47.3 µM

same assay, conditions: ZIKV-infected human astrocytes

Structure (SMILES)	Cell viability (efficacy, %) Astrocyte
CCC(CC)CC1(C(=O)Nc2ccccc2SC(=O)C(C)C)CCCCC1 [Dalcetrapib]	45.7%
Clc1ccccc1-c1nc(-c2ccncc2)no1 [Pifexole]	0.0%
O=C(Nc1ncc([N+](=O)[O-])s1)c1cccs1 [Tenonitrozole]	0.0%

test system: ZIKV-induced caspase 3/7 activity in human astrocytes; assay: Caspase 3/7 activity assay, ZIKV-infected human astrocytes; type: cell-based; settings: Astrocyte; ZIKV-infected human astrocytes; read-out: Caspase 3 (IC50, uM) Astrocyte
Protocol: as §1, §2

IC50	Structure (SMILES)
6.9 µM	Clc1ccccc1-c1nc(-c2ccncc2)no1 [Pifexole]
2.06 µM	O=C(Nc1ncc([N+](=O)[O-])s1)c1cccs1 [Tenonitrozole]

same assay, conditions: Astrocyte; ZIKV-infected human astrocytes; read-out: Caspase 3 (efficacy, %) Astrocyte

Structure (SMILES)	Emax
CCC(CC)CC1(C(=O)Nc2ccccc2SC(=O)C(C)C)CCCCC1 [Dalcetrapib]	0%
Clc1ccccc1-c1nc(-c2ccncc2)no1 [Pifexole]	86.3%
O=C(Nc1ncc([N+](=O)[O-])s1)c1cccs1 [Tenonitrozole]	88.8%

test system: ZIKV-induced caspase 3/7 activity in hNPCs; assay: Caspase 3/7 activity assay, ZIKV-infected hNPCs; type: cell-based; settings: Homo sapiens; ZIKV-infected hNPCs; read-out: Caspase 3 (IC50, uM) NPCs
Protocol: Caspase-Glo 3/7 assay kit (catalog number G8092; Promega, Madison, Wis.) was used to detect caspase 3/7 activity. Reagents were reconstituted as described in the protocol from the manufacturer. Polystyrene plates (384-well and 1536-well; regular tissue culture treated and PDL coated) were purchased from Greiner Bio-One (Monroe, N.C.). Cells were seeded in 384- and 1536-well assay plates and cultured at 37° C. with 5% CO2 for 16 hours. ZIKV solution was added to cells, followed by incubation at 37° C. with 5% CO2 for 6 hours. Caspase-Glo 3/7 was added to each well, unless otherwise specified, and incubated at room temperature for 30 minutes. The luminescence intensity of the assay plates was measured using a ViewLux plate reader (PerkinElmer). Data were normalized by using the cell-containing wells without ZIKV as a negative control (0% induction of caspase 3/7 activity) and wells containing ZIKV infected cells that induced caspase 3/7 activity were used as a positive control (100% induction of caspase 3/7 activity).
Human NPCs were seeded onto PDL coated 1536-well assay plates at 250 cells per 3 μl/well and incubated at 37° C. in 5% CO2 for 16 hours. Test compounds dissolved in DMSO were transferred to assay plates at a volume of 23 nl/well by an automated pintool workstation (Wako Automation, San Diego, Calif.). Compounds were incubated with cells for 30 minutes at 37° C. in 5% CO2, immediately followed by the addition of 2 μl/well of ZIKV. Incubation time of compound-treated cells with ZIKV varied based on assay format. Experiments measuring virus-induced caspase 3/7 activity required a 6 hour incubation of ZIKV in the presence compounds at 37° C. in 5% CO2. Following this incubation, 3.5 μl/well of caspase 3/7 reagent mixture was added to assay plates. The plates were incubated for 30 minutes at room temperature, and the resultant luminescence signal was measured using a ViewLux plate reader (Perkin Elmer). Experiments measuring virus-induced cell death required a 72-hour incubation of ZIKV in the presence of compounds at 37° C. in 5% CO2. Following this incubation, 3.5 μl/well of ATP content detection reagent was added to assay plates, incubated for 30 minutes at the room temperature, and the resultant luminescence signal was measured in a ViewLux plate reader.
Caspase-Glo 3/7 assay kit (Promega) was used to detect caspase 3/7 activity. Reagents were reconstituted as described in the protocol from the manufacturer. Cells were seeded in 384- and 1536-well assay plates and cultured at 37° C. with 5% CO2 for 16 hours. ZIKV solution was added to cells, followed by incubation at 37° C. with 5% CO2 for 6 hours. Caspase-Glo 3/7 was added to each well at a 1:1 ratio, unless otherwise specified, and incubated at room temperature for 30 minutes. The luminescence intensity of the assay plates was measured using a ViewLux plate reader (PerkinElmer). Data was normalized by using the cell-containing wells without ZIKV as a negative (0% induction of caspase 3/7 activity) control and wells containing ZIKV infected cells that induced caspase 3/7 activity were used as a positive control (100% induction of caspase 3/7 activity).
Human NPCs were seeded onto PDL coated 1536-well assay plates at 250 cells per 3 μl/well and incubated at 37° C. in 5% CO2 for 16 hours. Test compounds dissolved in DMSO were transferred to assay plates at a volume of 23 nl/well by an automated pintool workstation (Wako Automation, San Diego, Calif.). Compounds were incubated with cells for 30 minutes at 37° C. in 5% CO2, immediately followed by the addition of 2 μl/well of ZIKV. Incubation time of compound-treated cells with ZIKV varied based on assay format. Experiments measuring virus induced caspase 3/7 activity required a 6 hour incubation of ZIKV in the presence compounds at 37° C. in 5% CO2. […]

IC50	Structure (SMILES)
35.5 µM	CCC(CC)CC1(C(=O)Nc2ccccc2SC(=O)C(C)C)CCCCC1 [Dalcetrapib]
4.61 µM	Clc1ccccc1-c1nc(-c2ccncc2)no1 [Pifexole]
1.3 µM	O=C(Nc1ncc([N+](=O)[O-])s1)c1cccs1 [Tenonitrozole]

same assay, conditions: Homo sapiens; ZIKV-infected hNPCs; read-out: Caspase 3 (efficacy, %) NPCs

Structure (SMILES)	Emax
CCC(CC)CC1(C(=O)Nc2ccccc2SC(=O)C(C)C)CCCCC1 [Dalcetrapib]	50.2%
Clc1ccccc1-c1nc(-c2ccncc2)no1 [Pifexole]	92.2%
O=C(Nc1ncc([N+](=O)[O-])s1)c1cccs1 [Tenonitrozole]	81.5%
